pEC50: −log10 of the molar value.
Experiments:
PPARα = target: T1, PPARα (Rattus norvegicus, UniProt P37230); test: HD bDNA Assay (HD gene induction); type: cell-based; conditions: in section F; target not named there, values match the PPARα column; read-out: EC50
T1 construct: H4IIE rat hepatoma cell line was obtained from ATCC; host or cells: H4IIE rat hepatoma cells
T1 sequence (P37230 1-468): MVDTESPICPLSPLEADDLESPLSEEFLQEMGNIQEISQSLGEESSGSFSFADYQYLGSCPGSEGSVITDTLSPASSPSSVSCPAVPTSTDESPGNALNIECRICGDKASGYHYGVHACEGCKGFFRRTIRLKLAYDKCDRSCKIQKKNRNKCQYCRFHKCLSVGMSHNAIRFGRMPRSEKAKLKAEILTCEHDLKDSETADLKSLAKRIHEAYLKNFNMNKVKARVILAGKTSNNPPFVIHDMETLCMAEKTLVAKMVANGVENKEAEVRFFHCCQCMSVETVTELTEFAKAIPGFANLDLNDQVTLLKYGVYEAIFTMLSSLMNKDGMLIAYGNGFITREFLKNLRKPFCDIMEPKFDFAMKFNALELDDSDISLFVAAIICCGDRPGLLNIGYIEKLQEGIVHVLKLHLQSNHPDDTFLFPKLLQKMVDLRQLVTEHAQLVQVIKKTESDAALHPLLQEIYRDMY
Outline: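 H4IIE rat hepatoma cells (~100,000/well) treated 24 hours at 37° C in low-serum medium (5% charcoal/dextran-treated calf serum) with compounds. HD mRNA quantified by branched DNA luminescence assay; EC50's from sigmoidal non-linear regression.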

PPARδ = target: T2, PPARδ (Homo sapiens, UniProt Q03181); test: Transfection Assay for PPARδ Receptors (PPAR-Gal4 / Gal4-Luciferase reporter in HEK293 cells); type: cell-based; conditions: values in square brackets
T2 construct: a Gal4-Luciferase reporter is co-transfected
T2 sequence (Q03181 171-441 limits assumed): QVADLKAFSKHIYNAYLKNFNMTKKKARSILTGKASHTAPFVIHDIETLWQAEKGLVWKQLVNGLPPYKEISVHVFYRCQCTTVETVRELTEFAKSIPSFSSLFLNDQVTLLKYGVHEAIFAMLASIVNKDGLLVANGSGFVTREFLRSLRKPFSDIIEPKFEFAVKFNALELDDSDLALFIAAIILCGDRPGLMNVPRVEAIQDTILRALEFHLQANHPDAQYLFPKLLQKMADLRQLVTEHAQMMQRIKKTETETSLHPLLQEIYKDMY
Outline: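 HEK293 cells co-transfected with PPAR-Gal4 receptor and Gal4-luciferase reporter, then moved into 5% charcoal-treated FBS medium. Compounds applied for 24 h at 37 °C, 5% CO2; luciferase activity read with Steady-Glo.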

ob/ob mice = test: 11 day oral dosing in female ob/ob mice; type: in vivo; conditions: 1.0 mpk, once daily oral gavage for 11 days, % change compared to vehicle
Method: 11 Day Dosing of Example in Female, 7 week Old ob/ob Mice
(Female ob/ob mice (C57 BL/6J-Lep^ob, Jackson Labs, Bar Harbor, Me.), 7 weeks of age, were housed two per cage in solid-bottomed shoe box cages. Room temperature was maintained at 68-72° F. and humidity at 50-65%. Room lighting was on a 12-hour light/12-hour dark cycle. Mice were fed a certified NIH Rat and Mouse diet #5K50 (P M I Nutrition Int'l, St. Louis, Mo., via W. F. Fisher and Son, Inc., Bound Brook, N.J.). Food and water were supplied ad libitum.
The compound was prepared as suspensions in 0.5% hydroxypropylmethylcellulose (Dow Chemical, Midland, Mich.). The dosing volume was 10 mL/kg of body weight. Female ob/ob diabetic mice (8/group) were orally gavaged once daily for 11 days with either 0.5% methylcellulose in dH2O (vehicle) or PPAR agonist at 0.003, 0.01, 0.03, 0.1, 0.3, 1 mg/kg/day. Body weight was measured in the mornings on Day 1, prior to dosing, and on Day 12 before bleeding. 18 hours after the final dose for each group, the mice were anesthetized with CO2/O2 (70%:30%) and bled by retro-orbital sinus puncture into micro-tubes containing clog activator and then put in ice. […] Serum glucose and triglycerides were determined by using COBAS Mira Plus blood chemistry analyzer (Roche Diagnostics, N.J.). Serum insulin and free fatty acids were measured by using ALPCO insulin ELISA kit and Wako NEFA kit, respectively. […]

pEC50 (PPARα): 8.00
pEC50 (PPARδ): < 5.52
Compound: CCN(C(=O)Nc1ccc(OC(F)(F)F)cc1)C1CCc2cc(SC(C)(C)C(=O)O)c(F)cc2C1 (stereo not drawn) [Example 50, 2-{6-[1-Ethyl-3-(4-trifluoromethoxyphenyl)ureido]-3-fluoro-5,6,7,8-tetrahydronaphthalen-2-ylsulfanyl}-2-methylpropionic acid]
Δ Plasma TG (ob/ob mice): −86%

— patent publication US20040171680A1, “Treating Syndrome X with substituted tetralins and indanes” (priority 2002, published 2004)
